{
  "source": "patent US11129807B2",
  "about": "“Methods of treating schizophrenia” (Sunovion Pharmaceuticals Inc., priority 2017, dated 2021)",
  "system": "patients with an acute exacerbation of schizophrenia (PANSS symptom factors)",
  "experiment": "Pooled 6-week placebo-controlled lurasidone studies in acute schizophrenia (PANSS Analysis Study): effect sizes on Marder and transformed PANSS factors",
  "type": "in vivo, human",
  "conditions": "FIG. 3B, given as r=",
  "description": "Profile of active drug effects on schizophrenia symptom domains. In the left panel of FIG. 3B, shown are lurasidone vs placebo effect sizes (with 95% CI) for change from baseline at week 6 endpoint, based on the Marder PANSS factors. In the right panel of FIG. 3B, the same lurasidone vs placebo effect sizes at endpoint are shown based on the transformed PANSS factors. Drug effects were constructed using a pool of all lurasidone doses (40, 80, 120, or 160 mg/day, total N=993) and excluded active comparators (olanzapine, quetiapine-XR). To examine placebo effects on PANSS factors, placebo treated patients (N=484) were pooled across all studies. Transformed PANSS factors were calculated using the coefficients of the score matrix (see FIG. 4 and Table 4A).\nThe analysis sample consisted of PANSS data derived from 5 similarly-designed, randomized, double-blind, placebo-controlled, 6-week treatment studies of lurasidone or active comparator for the treatment of patients with an acute exacerbation of schizophrenia. Patients (N=1,710) were included in this analysis if they had received at least one dose of study drug, and had at least one post-baseline PANSS assessment. The analysis pooled all lurasidone doses (40, 80, 120, or 160 mg/d, total N=993), and excluded active comparators (olanzapine, quetiapine-XR). To examine placebo effects on PANSS factors, placebo treated patients (N=484) were pooled across all studies. Herein also referred to as the “PANSS Analysis Study.”\nThe Uncorrelated PANSS Score Matrix (UPSM) of FIG. 4 and Table 4A was derived using PROC FACTOR procedure of SAS 9.4 with maximum likelihood method (maximum likelihood factor analysis), rotated using the varimax algorithm and compensated for communality greater than 1 using Heywood criteria without a limit on the number of factors produced. A last observation carried forward (LOCF) data imputation method was applied for missing post-baseline PANSS assessments.\nThe ratings of 30 items in the PANSS data of the PANSS Analysis Study were transformed to transformed PANSS factor scores using a score matrix identified by the maximum likelihood method factor analysis conducted on all change from baseline PANSS data from the 5 short-term clinical trials in the pooled analysis sample. The score matrix, also referred to here as the UPSM, consisted of coefficients multiplying the numerical ratings of each PANSS item differentially for each of the factor scores.\nThe change-from-baseline PANSS data for all patients and all observations N was a matrix of dimensions (N observations×30 items). To increase precision, the score matrix coefficients were determined using all change-from-baseline observations at Weeks 1-6. The resultant score matrix (30 items×7 factors), or UPSM, was used to transform individual PANSS item change scores (without standardization) to reduce the dimensionality into 7-factor values for each PANSS assessment. FIG. 4 and Table 4A summarize the score matrix (UPSM) weights for individual PANSS items used to generate the transformed PANSS factors.\nThe weighted score matrix transformation was performed on each of the PANSS item baseline-to-endpoint change scores. This transformation yielded 5 transformed PANSS factors that corresponded to the Marder PANSS factors, with two of the factors (negative symptoms and depression/anxiety) further subdivided into sub-factors (corresponding to the symptom sub-domains of: apathy/avolition and deficit of expression; and depression and anxiety, respectively).\nThe Validation Study data transformed PANSS factors of Example 1 were used to compare treatment effects of an antipsychotic (lurasidone) on established schizophrenia symptom domains with those estimated using Marder PANSS factors.",
  "data": [
    {"smiles": "O=C1[C@@H]2[C@H]3CC[C@H](C3)[C@@H]2C(=O)N1C[C@@H]1CCCC[C@H]1CN1CCN(c2nsc3ccccc23)CC1", "note": "[lurasidone]", "values": [
      {"measurement": "effect size, Marder negative symptom factor", "setting": "change score", "value": 0.35},
      {"measurement": "effect size, transformed PANSS negative symptoms deficit of expression", "setting": "change score", "value": 0.04},
      {"measurement": "effect size, transformed PANSS negative symptoms of apathy/avolition", "setting": "change score", "value": 0.22},
      {"measurement": "effect size, Marder PANSS disorganized factor change score", "value": 0.48},
      {"measurement": "effect size, Marder PANSS factor change score compared with transformed anxiety factor", "value": 0.38},
      {"measurement": "effect size, Marder PANSS factor change score compared with transformed depression factor", "value": 0.38},
      {"measurement": "effect size, Marder PANSS hostility factor change score", "value": 0.43},
      {"measurement": "effect size, Marder PANSS positive factor change score", "value": 0.59},
      {"measurement": "effect size, transformed PANSS anxiety factor change score", "value": 0.24},
      {"measurement": "effect size, transformed PANSS depression factor change score", "value": 0.16},
      {"measurement": "effect size, transformed PANSS disorganized factor change score", "value": 0.23},
      {"measurement": "effect size, transformed PANSS hostility factor change score", "value": 0.31},
      {"measurement": "effect size, transformed PANSS positive factor change score", "value": 0.45}
    ]}
  ]
}
